This passage reports IC50 results from US20260166039A1 (SCHRÖDINGER, INC., priority 2022, published 2026).

For the assay, the target named is T1, Wee1 kinase domain (Homo sapiens, UniProt P30291).
T1 construct: Wee1 kinase domain was purchased from Carna (catalog #05-177); purchased Carna 05-177
T1 sequence (P30291 299-569 limits assumed): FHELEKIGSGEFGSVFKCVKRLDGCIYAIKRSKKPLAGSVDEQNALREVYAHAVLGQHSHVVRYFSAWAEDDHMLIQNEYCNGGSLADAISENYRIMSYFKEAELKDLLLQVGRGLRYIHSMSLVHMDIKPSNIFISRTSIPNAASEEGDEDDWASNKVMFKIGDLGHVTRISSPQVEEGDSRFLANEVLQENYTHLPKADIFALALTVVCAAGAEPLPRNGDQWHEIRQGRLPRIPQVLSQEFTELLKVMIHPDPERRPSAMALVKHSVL
As to the kind of experiment: Wee1 Kinase Biochemical Assay (ADP-Glo). As to conditions: Wee1 kinase domain, 15 uM ATP, ADP-Glo. In short, it runs like this:
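ADP-Glo detection of ADP produced after 4 h at 25° C by 1 nM Wee1 kinase domain on 2 ng/mL poly(Lys,Tyr 4:1) with 15 uM ATP. Buffer: 40 mM Tris-HCl, 20 mM MgCl2, 0.1 mg/mL BSA, 2 mM DTT. Inhibition is relative to DMSO (high) and saturating Wee1 inhibitor (low) controls.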
In general terms: ADP-Glo first removes unused ATP, then detects ADP through luciferase.
For `CN1CCC(n2ccc(Nc3ncc4c(n3)N(c3cccc(N=S(C)(C)=O)n3)[C@@H]3CC(C)(C)OC[C@]43C)n2)CC1` (single isomer, unassigned) [Example 229], the IC50 (usually the concentration that inhibits the measured activity by half) lay within 10 to 100 nM. To `C[C@H]1COC(=O)N1c1cccc(N2c3nc(Nc4ccc(N5CCN(C)CC5)cc4)ncc3[C@@]3(C)COC(C)(C)C[C@@H]23)n1` (single isomer, unassigned) [Example 234] belongs 10 to 100 nM; to `Cc1cc(Nc2ncc3c(n2)N(c2cccc(N4C(=O)OC[C@@H]4C)n2)[C@H]2CC(C)(C)OC[C@@]32C)ccc1N1CCN(C)CC1` (single isomer, unassigned) [Example 236], 10 to 100 nM. As for `Cc1cc(Nc2ncc3c(n2)N(c2cccc(N4C(=O)OC[C@@H]4C)n2)[C@H]2CC(C)(C)OC[C@@]32C)ccc1C1CCN(C)CC1` (single isomer, unassigned) [Example 239], the figure is below 10 nM; as for `C[C@H]1COC(=O)N1c1cccc(N2c3nc(Nc4ccc(N5CCN(C)CC5)nc4)ncc3[C@]3(C)COC(C)(C)C[C@H]23)n1` (single isomer, unassigned) [Example 240], 100 to 1000 nM. As for `C[C@H]1COC(=O)N1c1cccc(N2c3nc(Nc4cnn(C5CCN(C)CC5)c4)ncc3[C@]3(C)COC(C)(C)C[C@H]23)n1` (single isomer, unassigned) [Example 242], the figure is 10 to 100 nM. In the case of `C[C@H]1COC(=O)N1c1cccc(N2c3nc(Nc4ccc(N5C[C@@H]6C[C@H]5CN6C)cc4)ncc3[C@]3(C)COC(C)(C)C[C@H]23)n1` (single isomer, unassigned) [Example 244], the IC50 fell in the range of 10 to 100 nM.

For the compound `C[C@H]1COC(=O)N1c1cccc(N2c3nc(Nc4ccc(N5CCN(C)CC5)nn4)ncc3[C@]3(C)COC(C)(C)C[C@H]23)n1` (single isomer, unassigned) [Example 248], the IC50 fell in the range of 100 to 1000 nM. To `C[C@H]1COC(=O)N1c1cccc(N2c3nc(Nc4ccc(C5CCN(C)CC5)cc4)ncc3[C@]3(C)COC(C)(C)C[C@H]23)n1` (single isomer, unassigned) [Example 250] belongs 10 to 100 nM. As for `C[C@H]1COC(=O)N1c1cccc(N2c3nc(Nc4cn(C5CCN(C)CC5)nn4)ncc3[C@]3(C)COC(C)(C)C[C@H]23)n1` (single isomer, unassigned) [Example 252], the figure is 100 to 1000 nM. To `C[C@H]1COC(=O)N1c1cccc(N2c3nc(Nc4cnn(C5CCNCC5)c4)ncc3[C@]3(C)COC(C)(C)C[C@H]23)n1` (single isomer, unassigned) [Example 254] belongs 10 to 100 nM. In turn, `C[C@H]1COC(=O)N1c1cccc(N2c3nc(Nc4ccc([C@@H]5CCNC5)nc4)ncc3[C@]3(C)COC(C)(C)C[C@H]23)n1` (single isomer, unassigned) [Example 256] registered an IC50 of 10 to 100 nM. Compound `C[C@H]1COC(=O)N1c1cccc(N2c3nc(Nc4ccc([C@H]5CCNC5)nc4)ncc3[C@]3(C)COC(C)(C)C[C@H]23)n1` (single isomer, unassigned) [Example 258] displayed an IC50 of 100 to 1000 nM. To `C[C@H]1COC(=O)N1c1cccc(N2c3nc(Nc4ccc(N5CCNCC5)cc4)ncc3[C@]3(C)COC(C)(C)C[C@H]23)n1` (single isomer, unassigned) [Example 261] belongs 10 to 100 nM; to `Cc1cc(Nc2ncc3c(n2)N(c2cccc(N4C(=O)OC[C@@H]4C)n2)[C@H]2CC(C)(C)OC[C@@]32C)ccc1[C@H]1CCNC1` (single isomer, unassigned) [Example 266], 10 to 100 nM.

`Cc1cc(Nc2ncc3c(n2)N(c2cccc(N4C(=O)OC[C@@H]4C)n2)[C@H]2CC(C)(C)OC[C@@]32C)ccc1[C@@H]1CCNC1` (single isomer, unassigned) [Example 268] had an IC50 of 10 to 100 nM.

The compound `C[C@H]1COC(=O)N1c1cccc(N2c3nc(Nc4ccc(N5CCN(C)CC5=O)cc4)ncc3[C@]3(C)COC(C)(C)C[C@H]23)n1` (single isomer, unassigned) [Example 270] displayed an IC50 of 10 to 100 nM.
